# In patent EP4722209A1 (Beijing Shenogen Pharma Group, priority 2023, dated 2024):
# Biological target: T1, ERα (Homo sapiens, UniProt P03372)
# T1 construct: host or cells: MCF-7
# T1 sequence (P03372 1-595): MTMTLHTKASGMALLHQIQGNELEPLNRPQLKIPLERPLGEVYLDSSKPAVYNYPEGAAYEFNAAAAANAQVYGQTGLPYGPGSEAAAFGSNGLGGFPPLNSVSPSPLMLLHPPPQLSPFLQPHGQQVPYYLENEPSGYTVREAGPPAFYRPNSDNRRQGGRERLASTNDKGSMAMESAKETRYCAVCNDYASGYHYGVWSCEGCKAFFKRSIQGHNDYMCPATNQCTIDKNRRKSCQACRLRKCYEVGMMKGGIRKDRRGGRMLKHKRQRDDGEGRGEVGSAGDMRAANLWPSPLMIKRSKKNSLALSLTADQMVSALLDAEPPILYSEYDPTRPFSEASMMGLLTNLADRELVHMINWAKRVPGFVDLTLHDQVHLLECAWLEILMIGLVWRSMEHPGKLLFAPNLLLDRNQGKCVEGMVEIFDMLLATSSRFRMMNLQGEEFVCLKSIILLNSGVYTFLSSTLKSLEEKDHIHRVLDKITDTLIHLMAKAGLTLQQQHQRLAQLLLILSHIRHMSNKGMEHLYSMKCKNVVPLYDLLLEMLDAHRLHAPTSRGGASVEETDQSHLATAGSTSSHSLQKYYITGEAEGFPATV
# Assay: ER degradation activity in MCF-7 cells (Western blot, grayscale intensity)
# Type: cell-based
# Details: 6 hours treatment, 1 nM to 100 nM, concentration required to degrade 50% of the target protein
# Method: ERα-positive human breast cancer cells MCF-7 (ATCC, HTB-22) were cultured with EMEM medium (ATCC, catalog number 30-2003) containing 10% fetal bovine serum (Thermo Fisher, catalog number 10099141) and 10 µg/mL bovine insulin in 25 cm^2 or 75 cm^2 plastic tissue culture flasks in a 37 °C incubator with 5% CO2. The cells were passaged 2 to 3 times per week. MCF-7 cells were seeded in 6-well plate at 1×10^6 cells/well with 1.8 mL culture medium per well, and cultured in a 37 °C incubator with 95% air and 5% CO2. After 24 hours, the test compounds were added: the compounds were serially diluted 10-fold in DMSO starting from 10 mM (dissolved in DMSO) to prepare gradient stock solutions. A complete culture medium containing 1% DMSO was prepared for further dilution, temporarily named as the "dilution buffer." Working solutions were prepared by diluting each stock solution with 99 times the volume of dilution buffer, that is, by adding 1 µL of the 10 mM stock solution to 99 µL of the dilution buffer and mixing thoroughly.
# Finally, […] of the working solution was added to the cell-seeded culture plate. The final concentration of DMSO in the cell culture medium was 0.2%, and the final concentration of the test compounds ranged from 1 nM to 100 nM. The cells were then incubated at 37 °C for 6 hours.
# The culture medium was removed, and the cells were washed twice with ice cold PBS. 1 mL of PBS was added to each well, and the cells were collected into EP tubes using a cell scraper, and centrifuged at 4 °C, 4000 rpm for 5 minutes. PBS was aspirated. Total protein was extracted using the Minute™ Mammalian Tissue/Cell Total Protein Extraction Reagent. The protein concentration was measured using the BCA protein assay kit. 30 µg of protein was taken and mixed with 5× SDS-PAGE loading buffer, boiled for 10 minutes, and cooled. The samples were loaded into wells of a precast gel, with constant voltage at 80 V for 30 minutes, and then the voltage was changed to 120 V after the samples entered the resolving gel. The "sandwich" (sponge - filter paper - gel - membrane - filter paper - sponge) was assembled for Bio-Rad's Transblot. Transfer was performed for 1 hour at 0.3 amp at 4 °C. The sample was blocked with 5% fat-free milk for 1 hour, and incubated with Estrogen Receptor alpha Antibody (Thermo Fisher, catalog number MA5-14104) overnight at 4 °C. The membrane was washed with TBST to remove non-specifically bound antibodies, and then incubated with goat anti-mouse IgG-HRP secondary antibody for 1 hour at room temperature, and was visualized using ECL. The protein degradation level was calculated by measuring the grayscale intensity.
# The DC50 values (i.e., the concentration of the test compounds required to degrade 50% of the target protein) were calculated and shown in Table 1. A corresponds to a DC50 value below 10 nM, B corresponds to a DC50 value greater than 10 nM and less than 100 nM, and C corresponds to DC50 values greater than 100 nM. Table 1. The DC50 values of exemplary compounds in MCF-7 cells
row,Structure (SMILES),DC50
1,CN(CC1CCN(c2ccc(C(=C3CC(C)(C)OC(C)(C)C3)c3ccc4[nH]nc(F)c4c3)cn2)CC1)C1CCN(c2cccn3c(N4CCC(=O)NC4=O)cnc23)CC1 [Compound 97],10 to 100 nM
2,CN(CC1CCN(c2ccc(C(=C3CC(C)(C)OC(C)(C)C3)c3ccc4[nH]nc(F)c4c3)cn2)CC1)C1CCN(c2ccn3c(N4CCC(=O)NC4=O)cnc3c2)CC1 [Compound 98],> 100 nM
3,Cn1c(=O)n(C2CCC(=O)NC2=O)c2cccc(C3CCN(CC4CCN(c5ccc(C(=C6CC(C)(C)OC(C)(C)C6)c6ccc7[nH]nc(F)c7c6)cn5)CC4)CC3)c21 (stereo not drawn) [Compound 99],10 to 100 nM
4,Cn1c(=O)n(C2CCC(=O)NC2=O)c2cccc(C#CCOC3CCN(c4ccc(C(=C5CC(C)(C)OC(C)(C)C5)c5ccc6[nH]nc(F)c6c5)cn4)CC3)c21 (stereo not drawn) [Compound 100],> 100 nM
5,Cn1c(=O)n(C2CCC(=O)NC2=O)c2cccc(C#CCN3CCN(c4ccc(C(=C5CC(C)(C)OC(C)(C)C5)c5ccc6[nH]nc(F)c6c5)cn4)CC3)c21 (stereo not drawn) [Compound 101],> 100 nM
6,CC1(C)CC(=C(c2ccc3[nH]nc(F)c3c2)c2c(F)cc(N3CCN(CC4CCN(c5ccc6c(c5)C(=O)N(C5CCC(=O)NC5=O)C6=O)CC4)CC3)cc2F)CC(C)(C)O1 (stereo not drawn) [Compound 102],> 100 nM
7,CC1(C)CC(=C(c2ccc(N3CCC(CN4CCN(c5ccc6c(c5)C(=O)N(C5CCC(=O)NC5=O)C6=O)CC4)CC3)nc2)c2ccc3[nH]nc(F)c3c2)CC(C)(C)O1 (stereo not drawn) [Compound 103],10 to 100 nM
8,CC1(C)CC(=C(c2ccc(N3CCC(N4CCN(c5ccc6c(c5)C(=O)N(C5CCC(=O)NC5=O)C6=O)CC4)CC3)nc2)c2ccc3[nH]nc(F)c3c2)CC(C)(C)O1 (stereo not drawn) [Compound 104],> 100 nM
9,CC1(C)CC(=C(c2ccc(N3CCN(C4CN(c5ccc6c(c5)C(=O)N(C5CCC(=O)NC5=O)C6=O)C4)CC3)nc2)c2ccc3[nH]nc(F)c3c2)CC(C)(C)O1 (stereo not drawn) [Compound 106],> 100 nM
10,CC1(C)CC(=C(c2ccc(N3CCC(CN4CCN(c5cccc(NC6CCC(=O)NC6=O)c5)CC4)CC3)cc2)c2ccc3[nH]nc(F)c3c2)CC(C)(C)O1 (stereo not drawn) [Compound 107],> 100 nM
11,CC1(C)CC(=C(c2ccc(N3CCN(C4CCN(c5cccc(NC6CCC(=O)NC6=O)c5)CC4)CC3)cc2)c2ccc3[nH]ncc3c2)CC(C)(C)O1 (stereo not drawn) [Compound 108],> 100 nM
12,CC1(C)CC(=C(c2ccc(N3CC4(CCC(N5CCN(c6ccc7c(c6)CN(C6CCC(=O)NC6=O)C7=O)CC5)CC4)C3)nc2)c2ccc3[nH]nc(F)c3c2)CC(C)(C)O1 (stereo not drawn) [Compound 109],< 10 nM
13,CC1(C)CC(=C(c2ccc(N3CCC(CN4CCN(c5ccc6c(c5)CN(C5CCC(=O)NC5=O)C6=O)CC4)CC3)nc2)c2ccc3c(F)n[nH]c3c2)CC(C)(C)O1 (stereo not drawn) [Compound 112],10 to 100 nM
14,CC1(C)CC(=C(c2ccc(N3CCC(CN4CCN(c5ccc6c(c5)CN(C5CCC(=O)NC5=O)C6=O)CC4)CC3)nc2)c2ccc3cncn3c2)CC(C)(C)O1 (stereo not drawn) [Compound 113],> 100 nM
15,CC1(C)CC(=C(c2ccc(N3CCC(CN4CCN(c5ccc6c(c5)CN(C5CCC(=O)NC5=O)C6=O)CC4)CC3)nc2)c2cccc(O)c2)CC(C)(C)O1 (stereo not drawn) [Compound 114],10 to 100 nM
16,CC1(C)CC(=C(c2ccc(N3CCC(CN4CCN(c5ccc(NC6CCC(=O)NC6=O)c(F)c5)CC4)CC3)cc2)c2ccc3[nH]nc(F)c3c2)CC(C)(C)O1 (stereo not drawn) [Compound 115],> 100 nM
17,CC1(C)CC(=C(c2ccc(N)nc2)c2ccc(N3CCC(CN4CCN(c5ccc6c(c5)CN(C5CCC(=O)NC5=O)C6=O)CC4)CC3)nc2)CC(C)(C)O1 (stereo not drawn) [Compound 116],> 100 nM
18,CC1(C)CC(=C(c2ccc(N3CCC4(CC3)CC(N3CCN(c5ccc(C(=O)N[C@H]6CCC(=O)NC6=O)c(F)c5)CC3)C4)nc2)c2ccc3[nH]nc(F)c3c2)CC(C)(C)O1 [Compound 123],10 to 100 nM
19,Cn1nc(N2CCC(=O)NC2=O)c2cc(F)c(N3CCN(C4CC5(CCN(c6ccc(C(=C7CC(C)(C)OC(C)(C)C7)c7ccc8[nH]nc(F)c8c7)cn6)CC5)C4)CC3)cc21 [Compound 125],< 10 nM
20,CC1(C)CC(=C(c2ccc(N3CCC4(CC3)CC(N3CCN(c5ccc(C(=O)N[C@H]6CCC(=O)NC6=O)cc5)CC3)C4)nc2)c2ccc3[nH]nc(F)c3c2)CC(C)(C)O1 [Compound 127],< 10 nM
21,CC1(C)CC(=C(c2ccc(N3CCC4(CC3)CC(N3CCN(c5ccc(C(=O)N[C@H]6CCC(=O)NC6=O)nc5)CC3)C4)nc2)c2ccc3[nH]nc(F)c3c2)CC(C)(C)O1 [Compound 129],10 to 100 nM

# Results, then the compound that gave them:
row,DC50,Structure (SMILES)
1,< 10 nM,"CC1(C)CC(=C(c2ccc(N3CCC(CN4CCN(c5cccn6c(N7CCC(=O)NC7=O)cnc56)CC4)CC3)nc2)c2ccc3[nH]nc(F)c3c2)CC(C)(C)O1 [Compound 96, 1-(8-(4-((1-(5-((3-fluoro-1H-indazole-5-yl)(2,2,6,6-tetramethyltetrahydro-4H-pyran-4-ylidene)methyl)pyridin-2-yl)piperidin-4-yl)methyl)piperazin-1-yl)imidazole [1,2-a]pyridin-3-yl)dihydropyrimidine-2,4 (1H, 3H) - dione]"
2,< 10 nM,CC1(C)CC(=C(c2ccc(N3CCN(C4CCN(c5ccc6c(c5)C(=O)N(C5CCC(=O)NC5=O)C6=O)CC4)CC3)nc2)c2ccc3[nH]nc(F)c3c2)CC(C)(C)O1 (stereo not drawn) [Compound 105]
3,> 100 nM,CC1(C)CC(=C(c2ccc(N3CCC(CN4CCN(c5ccc6c(c5)C(=O)N(C5CCC(=O)NC5=O)C6)CC4)CC3)nc2)c2ccc3[nH]nc(F)c3c2)CC(C)(C)O1 (stereo not drawn) [Compound 118]
4,< 10 nM,CC1(C)CC(=C(c2ccc(N3CCC(CN4CCN(c5ccc(C(=O)N[C@H]6CCC(=O)NC6=O)c(F)c5)CC4)CC3)nc2)c2ccc3[nH]nc(F)c3c2)CC(C)(C)O1 [Compound 122]
5,10 to 100 nM,Cn1nc(N2CCC(=O)NC2=O)c2cc(F)c(N3CCN(CC4CCN(c5ccc(C(=C6CC(C)(C)OC(C)(C)C6)c6ccc7[nH]nc(F)c7c6)cn5)CC4)CC3)cc21 [Compound 124]
6,< 10 nM,CC1(C)CC(=C(c2ccc(N3CCC(CN4CCN(c5ccc(C(=O)N[C@H]6CCC(=O)NC6=O)cc5)CC4)CC3)nc2)c2ccc3[nH]nc(F)c3c2)CC(C)(C)O1 [Compound 126]
7,10 to 100 nM,CC1(C)CC(=C(c2ccc(N3CCC(CN4CCN(c5ccc(C(=O)N[C@H]6CCC(=O)NC6=O)nc5)CC4)CC3)nc2)c2ccc3[nH]nc(F)c3c2)CC(C)(C)O1 [Compound 128]
8,< 10 nM,CC1(C)CC(=C(c2ccc(N3CCC(CN4CCN(c5ccc6c(c5)C(=O)N([C@@H]5CCC(=O)NC5=O)C6=O)CC4)CC3)cc2)c2ccc3[nH]ncc3c2)CC(C)(C)O1 [Compound 130]
9,< 10 nM,CC1(C)CC(=C(c2ccc(N3CCC(CN4CCN(c5ccc6c(c5)C(=O)N([C@H]5CCC(=O)NC5=O)C6=O)CC4)CC3)cc2)c2ccc3[nH]ncc3c2)CC(C)(C)O1 [Compound 131]
10,10 to 100 nM,CC1(C)CC(=C(c2ccc(N3CCC(N4CCN(c5ccc6c(c5)CN([C@@H]5CCC(=O)NC5=O)C6=O)CC4)CC3)cc2)c2ccc3[nH]nc(F)c3c2)CC(C)(C)O1 [Compound 134]
11,10 to 100 nM,CC1(C)CC(=C(c2ccc(N3CCC(N4CCN(c5ccc6c(c5)CN([C@H]5CCC(=O)NC5=O)C6=O)CC4)CC3)cc2)c2ccc3[nH]nc(F)c3c2)CC(C)(C)O1 [Compound 135]
12,< 10 nM,CC1(C)CC(=C(c2ccc(N3CCC(CN4CCN(c5ccc6c(c5)CN([C@@H]5CCC(=O)NC5=O)C6=O)CC4)CC3)nc2)c2ccc3[nH]ncc3c2)CC(C)(C)O1 [Compound 136]
